Measurements taken from patent US12403132B2, “Methods of treating bone marrow failure syndromes and compositions for use in the same” (The Board of Trustees of the Leland Stanford Junior …, priority 2020, dated 2025).

Experiments:
CD235+ erythroblasts [1] = assay: CD235+ erythroid expansion of differentiating human cord blood CD34+ progenitors (shRPS19/shRPL11 DBA models), flow cytometry; type: cell-based
c-Myb [2] = assay: c-Myb protein and phosphorylation by Western blot after p53 activation in Kp53A1 cells; type: cell-based, human
c-Myb [3] = assay: NLK kinase and ubiquitination assays with c-Myb as substrate, Kp53A1 cells; type: cell-based, human
Excerpt: FIG. 4. NLK phosphorylation of c-Myb results in ubiquitination and proteasome degradation. Fetal liver CD34+ progenitors transduced with shRNA against luciferase (shLuc) or RPS19 (shRPS19) in conjunction with siRNA against NLK (siNLK) or a non-targeting sequence (NT). Cells were differentiated for 5 days and split into three aliquots. One aliquot was lysed and probed for c-Myb, NLK, RPS19 and GAPDH protein expression by western blot, while the second aliquot was subjected to qRT-PCR to examine c-Myb mRNA expression (a) The third aliquot was analyzed for NLK activity by kinase assay (b—upper) and ubiquitination assay (b—lower). Orange, blue and green bars represent the extent of NLK, Myb and raptor phosphorylation respectively. Values are expressed as a fold relative to activity in controls (shLuc/NT). White, grey and black bars designate the substrates NLK, c-Myb and raptor respectively with values designating the extent of ubiquitination observed of each substrate relative to control. (c and d) Kp53A1 cells alone, or transfected with plasmids expressing NT or siNLK were cultured for 30 h at 37 or 32° C. prior to lysis and western blotting for c-Myb, NLK and GAPDH. Myb mRNA levels were determined by qRT-PCR. (c) and NLK kinase assays and cell ubiquitination assays were performed as above. (e) Kp53A1 cells were cultured at 37 (grey bars) or 32° C. […]

CD235+ erythroblasts [4] = assay: CD235+ erythroid expansion of differentiating human cord blood CD34+ progenitors (shRPS19/shRPL11 DBA models), flow cytometry; type: cell-based; settings: control (shLuc), exogenous TGFβ 5 ng/ml
Procedure: FIG. 7. […] (a) Differentiating cord blood CD34+ progenitors were transduced with shRNA against luciferase or RPS19 and treated with inhibitors at working concentrations for TGFβ inhibition every three days. Cells were counted and CD235+ erythroid cells were assessed by flow cytometry after 15 days. (b) Prior to flow cytometry, 5000 cells per group were taken from differentiating cultures for NLK kinase assay. (c) CD34+ progenitors were transduced with shRNA against luciferase or RPS19 and non-targeting or siRNA against NLK. After sorting, samples were split into two groups and either treated with vehicle or SD208 every three days. After 15 days cells were counted and subject to flow cytometry to compare the expansion of maturing CD235+ erythroid (left panel) and CD11b+ myeloid cells (right panel). (d) Cord Blood CD34+ progenitors were transduced with shRNA against luciferase (left panel) or RPS19 (right panel) differentiated in erythroid media for 15 days alone, or in the presence of SB525334 or SD208 at 5 μM. Cells were counted and CD235+ erythroid (D—upper) and CD11b+ myeloid cell (D—lower) percentages were determined by flow cytometry. The number of erythroid or myeloid cells is expressed as a percentage of the number of that lineage with no cytokine or drug treatment.
FIG. 8. […] Human cord blood CD34+ progenitors were transduced with lentivirus co-expressing GFP with shRNA against luciferase (shLuc), RPS19 (shRPS19) or RPL11 (shRPL11). After 36 hours cells GFP+ cells were differentiated in erythroid media in the presence or absence of 5 μM SD208 for 15 days. Cells were counted and assessed for cell surface expression of CD235. (a) The percentage of CD235+ cells was multiplied by the cell count and values were compared as a percentage of untreated controls. (b) Normalizing values relative to untreated RPS19-insufficiency progenitors facilitates direct comparison of erythropoiesis between untreated and SD208-treated cultures. (c) Approximately 3000 cells were removed from differentiating treatments at day 6 and NLK activity was assessed. Values were normalized to reflect a fold induction relative to untreated controls. (d) Lin-Kit+ hematopoietic progenitors were obtained from three mouse embryos expressing tetracycline-inducible shRNA against RPS19 at day E14.5 or three untreated mice, and thee mature RPL11^+/+ or three mature RPL11^+/lox mice treated with tamoxifen for eight weeks. Cells were grown in the presence or absence of doxycycline and/or SD208 for eight days prior to counting and assessing for ter119 surface expression. Values were expressed as a percentage relative to untreated controls (e) and directly comparing the effect of SD208 on erythropoiesis in ribosomal-insufficiency by expressing values relative to untreated ribosome-insufficient cultures (f). At day 5 approximately 3000 cells were assayed for NLK kinase assay (g). CD34+ HSPCs were isolated from three healthy control and three DBA patient mononuclear bone marrow aspirates by magnetic bead sorting and differentiated in the presence or absence of SD208 for 14 days. After counting the total cell population, the ratio of CD235+ erythroblasts was determined by flow cytometry and number of CD235+ erythroblasts calculated. This was expressed as a percentage of the average number of erythroid cells present in untreated healthy controls. (h) The direct effect of SD208 on erythroid expansion in DBA patient samples was calculated following normalization of untreated DBA patient samples as 1-fold, (i) At day five, 3000 cells from each of the differentiating cultures was analyzed for NLK activity by kinase assay and are expressed as a fold induction relative to untreated healthy controls.

CD11b+ myeloid cells = assay: CD11b+ myeloid expansion of differentiating human cord blood CD34+ progenitors; type: cell-based; settings: control (shLuc), exogenous TGFβ 5 ng/ml
Procedure: FIG. 7. SD208 increases erythroid expansion in human model of DBA through inhibition of NLK and not TGFβ. (a) Differentiating cord blood CD34+ progenitors were transduced with shRNA against luciferase or RPS19 and treated with inhibitors at working concentrations for TGFβ inhibition every three days. Cells were counted and CD235+ erythroid cells were assessed by flow cytometry after 15 days. (b) Prior to flow cytometry, 5000 cells per group were taken from differentiating cultures for NLK kinase assay. (c) CD34+ progenitors were transduced with shRNA against luciferase or RPS19 and non-targeting or siRNA against NLK. After sorting, samples were split into two groups and either treated with vehicle or SD208 every three days. After 15 days cells were counted and subject to flow cytometry to compare the expansion of maturing CD235+ erythroid (left panel) and CD11b+ myeloid cells (right panel). […] Cells were counted and CD235+ erythroid (D—upper) and CD11b+ myeloid cell (D—lower) percentages were determined by flow cytometry. The number of erythroid or myeloid cells is expressed as a percentage of the number of that lineage with no cytokine or drug treatment.
FIG. 9. […] Cells were counted and the percentage expressing CD235+ erythroid (left) and CD11b+ myeloid (right) was determined by flow cytometry. […] Values are expressed as a fold induction relative to untreated. (Panel C) Transduced and sorted CD34+ progenitors were cultured in methylcellulose in the presence or absence of metformin for 16 days and BFU-E erythroid (left) and CFU-GM myeloid (right) colonies scored. […] To directly compare the effect of metformin in each group, metformin-treated cultures were normalized to untreated cultures and are expressed as a fold induction of the untreated control. […]
Cells were incubated with human Fc receptor binding inhibitor (#14-9161-73; eBioscience) followed by primary antibodies CD235-APC (#306607; BioLegend) and CD11b-PE/Cy5 (#101209; BioLegend). Data were collected on a DxP10 flow cytometer (Cytek) and analyzed by using FlowJo Software, v.9.7.2.

Q: How did the “erythroid and myeloid expansion restored, % of cultures not treated with TGFβ” value (CD235+ erythroblasts [1]; TGFβ-treated control and RPS19-insufficiency, 5 μM) turn out when Cc1cccc(-c2[nH]c(C(C)(C)C)nc2-c2ccc3c(c2)OCO3)n1 [SB505124] was run?
A: Its value is “at least 95%”.

Q: What does the source list for CC(=O)N[C@@H](CSC(=O)[C@]1([C@@H](O)C(C)C)NC(=O)[C@H](C)[C@@H]1O)C(=O)O [lactacystin]?
A: c-Myb protein levels (c-Myb [2]; Kp53A1, 16 hours post p53 activation, lactacystin 10 μM, chloroquine 30 μM): sustained; c-Myb phosphorylation (c-Myb [2]; Kp53A1, after p53 activation, up to 48 h): sustained phosphorylation to 48 h

Q: With CN[C@@H]1C[C@H]2O[C@@](C)([C@@H]1OC)n1c3ccccc3c3c4c(c5c6ccccc6n2c5c31)C(=O)NC4 [staurosporine] as the molecule, how does the “c-Myb phosphorylation, fold increase relative to controls” value (c-Myb [3]; 1 µM) read?
A: The value was 1.3 fold.

Q: What about the “c-Myb ubiquitination, fold of control” value (c-Myb [3]; Kp53A1 lysate with elevated p53 activity, 1 μM staurosporine, 7.4-fold without inhibitor) of the same molecule?
A: The value was 2.3 fold.

Q: Which “reduction of erythroid progenitors” value (CD235+ erythroblasts [4]) does the source give for TGFβ: exogenous TGFβ (5 ng/ml) here?
A: Its value is 85%.

Q: What about the “additional reduction of erythroid expansion” value (CD235+ erythroblasts [1]; RPS19-insufficient progenitors, exogenous TGFβ) of the same molecule?
A: The value was 86%.

Q: And the “reduction of myeloid progenitors” value (CD11b+ myeloid cells)?
A: Its value is 80%.
